15 molecules from patent US20180265515A1 (Genentech, Inc., priority 2015, published 2018) can be followed below.

One may read the Ki as the dissociation constant of the complex between target and ligand, obtained from inhibition or displacement. The term IC50 denotes the concentration that inhibits the measured activity by half.

Test [1] deals with T1, isolated recombinant JAK2 kinase domain (Homo sapiens, UniProt O60674).
T1 construct: The activity of the isolated recombinant JAK1 and JAK2 kinase domain was measured
T1 sequence (O60674 849-1124 limits assumed): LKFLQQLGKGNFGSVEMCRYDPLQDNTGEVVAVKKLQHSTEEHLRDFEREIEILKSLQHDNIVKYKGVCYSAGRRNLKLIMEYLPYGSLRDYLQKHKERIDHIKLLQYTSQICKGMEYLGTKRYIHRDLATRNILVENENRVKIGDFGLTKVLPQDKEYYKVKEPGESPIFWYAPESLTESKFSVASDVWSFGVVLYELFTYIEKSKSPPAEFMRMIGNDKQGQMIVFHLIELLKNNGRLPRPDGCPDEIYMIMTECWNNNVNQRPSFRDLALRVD
The test can be described thus: JAK2 enzyme assay (Caliper LabChip, Ki). Particulars: 25 μM ATP. Type of test: biochemical. A digest of the protocol:
(§1)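 Phosphorylation of a fluorescent JAK3-derived dodecapeptide by recombinant human JAK1 or JAK2 catalytic domain is monitored through electrophoretic product/substrate separation. Incubation lasts 30 minutes at 22° C; EDTA quench. Morrison-model Ki values account for ATP competition.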

The subject of test [2] is JAK1-dependent STAT6 phosphorylation downstream of IL-13 stimulation in BEAS-2B human bronchial epithelial cells. The test can be described thus: JAK1 pathway assay in BEAS-2B cells (IL-13 stimulated STAT6 phosphorylation, MSD). Type of test: cell-based. The following applies: read-out: P-STAT6 BEAS2B + IL13 IC50. The gist of the method:
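BEAS-2B human bronchial epithelial cells, plated the day before in complete growth medium, were preincubated with compound for 1 hr at 37° C (0.2% DMSO final), then stimulated with IL-13 at its EC90 for 15 min. STAT6 phosphorylation in lysates was read by MSD; EC50 was taken as 50% inhibition versus DMSO control.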

The target in test [3] is T2, isolated recombinant JAK1 kinase domain (Homo sapiens, UniProt P23458).
T2 construct: The activity of the isolated recombinant JAK1 and JAK2 kinase domain was measured
T2 sequence (P23458 875-1153 limits assumed): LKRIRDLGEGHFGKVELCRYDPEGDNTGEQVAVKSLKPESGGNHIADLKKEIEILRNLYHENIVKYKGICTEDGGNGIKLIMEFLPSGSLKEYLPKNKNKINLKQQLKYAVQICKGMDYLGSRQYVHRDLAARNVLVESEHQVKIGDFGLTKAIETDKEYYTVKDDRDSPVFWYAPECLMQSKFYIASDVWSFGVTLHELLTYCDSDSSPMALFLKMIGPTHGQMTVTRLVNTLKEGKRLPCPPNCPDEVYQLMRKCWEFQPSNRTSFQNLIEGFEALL
The test can be described thus: JAK1 enzyme assay (Caliper LabChip, Ki). It counts as biochemical. The following applies: recombinant JAK1 kinase domain, 25 μM ATP. The gist of the method: as §1

For `CC(C)Sc1ccc(OC(F)F)c(-c2nn(CC(=O)N3CCN(CC4CCN(CC(=O)N(C)C)CC4)CC3)cc2NC(=O)c2cnn3cccnc23)c1` [Example 140, N-[3-[2-(difluoromethoxy)-5-isopropylsulfanyl-phenyl]-1-[2-[4-[[1-[2-(dimethylamino)-2-oxo-ethyl]-4-piperidyl]methyl]piperazin-1-yl]-2-oxo-ethyl]pyrazol-4-yl]pyrazolo[1,5-a]pyrimidine-3-carboxamide], the Ki came to 1.7 nM in test [1] and 0.63 nM in test [3]. Besides, in test [2], the IC50 came out at 51 nM.
With `CC(C)Sc1ccc(OC(F)F)c(-c2nn(CC(=O)N3CCN(CC4CCN(CC(=O)N5CCOCC5)CC4)CC3)cc2NC(=O)c2cnn3cccnc23)c1` [Example 141, N-[3-[2-(difluoromethoxy)-5-isopropylsulfanyl-phenyl]-1-[2-[4-[[1-(2-morpholino-2-oxo-ethyl)-4-piperidyl]methyl]piperazin-1-yl]-2-oxo-ethyl]pyrazol-4-yl]pyrazolo[1,5-a]pyrimidine-3-carboxamide], the Ki in test [1] was 1.9 nM; in test [3] it was 0.78 nM. For the same molecule, the IC50 in test [2] came out at 36 nM.
In the same order, the values of `CC(C)Sc1ccc(OC(F)F)c(-c2nn(CC(=O)N3CCN(C4CCN(CC(=O)N(C)C)CC4)CC3)cc2NC(=O)c2cnn3cccnc23)c1` [Example 142, N-[3-[2-(difluoromethoxy)-5-isopropylsulfanyl-phenyl]-1-[2-[4-[1-[2-(dimethylamino)-2-oxo-ethyl]-4-piperidyl]piperazin-1-yl]-2-oxo-ethyl]pyrazol-4-yl]pyrazolo[1,5-a]pyrimidine-3-carboxamide] are 2 nM, 0.88 nM and 110 nM.
On to `CC(C)Sc1ccc(OC(F)F)c(-c2nn(CC(=O)N3CCC(N4CCN(C5COC5)CC4)CC3)cc2NC(=O)c2cnn3cccnc23)c1` [Example 143], for which the Ki in test [1] was 2.5 nM; in test [3], 0.92 nM. In addition, the IC50 in test [2] worked out at 89 nM.
As for `CC(C)Sc1ccc(OC(F)F)c(-c2nn(C)cc2NC(=O)c2cnn3cccnc23)c1` [Example 144, N-[3-[2-(difluoromethoxy)-5-(propan-2-ylsulfanyl)phenyl]-1-methyl-1H-pyrazol-4-yl]pyrazolo[1,5-a]pyrimidine-3-carboxamide], the figures for the Ki in test [1] and in test [3] were 0.14 nM and 0.25 nM, respectively. Besides, the IC50 in test [2] is 5.6 nM.
In the case of `CNC(=O)[C@@H]1CCCN1C1CCN(C(=O)Cn2cc(NC(=O)c3cnn4cccnc34)c(-c3cc(SC(C)C)ccc3OC(F)F)n2)CC1` [Example 145, N-[3-[2-(difluoromethoxy)-5-isopropylsulfanyl-phenyl]-1-[2-[4-[(2S)-2-(methylcarbamoyl)pyrrolidin-1-yl]-1-piperidyl]-2-oxo-ethyl]pyrazol-4-yl]pyrazolo[1,5-a]pyrimidine-3-carboxamide], the results for the Ki in test [1] and in test [3] were 1.6 nM and 0.6 nM, respectively. For the same molecule, the IC50 in test [2] stood at 100 nM.
In the same order, the values of `CC(C)Sc1ccc(OC(F)F)c(-c2nn(CC(=O)N3CCC(N4CCn5ccnc5C4)CC3)cc2NC(=O)c2cnn3cccnc23)c1` [Example 146, N-[3-[2-(difluoromethoxy)-5-isopropylsulfanyl-phenyl]-1-[2-[4-(6,8-dihydro-5H-imidazo[1,2-a]pyrazin-7-yl)-1-piperidyl]-2-oxo-ethyl]pyrazol-4-yl]pyrazolo[1,5-a]pyrimidine-3-carboxamide] are 0.72 nM, 0.37 nM and 170 nM.
On to `CC(C)Sc1ccc(OC(F)F)c(-c2nn(CC(=O)N3CCC(N(CCN4CCOCC4)C4COC4)CC3)cc2NC(=O)c2cnn3cccnc23)c1` [Example 147, N-[3-[2-(difluoromethoxy)-5-isopropylsulfanyl-phenyl]-1-[2-[4-[2-morpholinoethyl(oxetan-3-yl)amino]-1-piperidyl]-2-oxo-ethyl]pyrazol-4-yl]pyrazolo[1,5-a]pyrimidine-3-carboxamide], for which the Ki came to 1.8 nM in test [1] and 0.73 nM in test [3]. The IC50 in test [2] amounted to 1000 nM.
On to `CC(C)Sc1ccc(OC(F)F)c(-c2nn(Cc3cn(C4CCN(C5COC5)CC4)nn3)cc2NC(=O)c2cnn3cccnc23)c1` [Example 148, N-[3-[2-(difluoromethoxy)-5-isopropylsulfanyl-phenyl]-1-[[1-[1-(oxetan-3-yl)-4-piperidyl]triazol-4-yl]methyl]pyrazol-4-yl]pyrazolo[1,5-a]pyrimidine-3-carboxamide], for which the Ki in test [1] amounted to 0.24 nM; in test [3], 0.4 nM. Also, the IC50 in test [2] was 55 nM.
In the same order, the values of `CC(C)Sc1ccc(OC(F)F)c(-c2nn(CC(=O)N3CCC(N4CCO[C@H](CO)C4)CC3)cc2NC(=O)c2cnn3cccnc23)c1` [Example 149, N-[3-[2-(difluoromethoxy)-5-isopropylsulfanyl-phenyl]-1-[2-[4-[(2S)-2-(hydroxymethyl)morpholin-4-yl]-1-piperidyl]-2-oxo-ethyl]pyrazol-4-yl]pyrazolo[1,5-a]pyrimidine-3-carboxamide] are 1.2 nM, 0.52 nM and 50 nM.
In the case of `COC(=O)N1CCN(CC2CCN(C(=O)Cn3cc(NC(=O)c4cnn5cccnc45)c(-c4cc(SC(C)C)ccc4OC(F)F)n3)CC2)CC1` [Example 150, methyl 4-[[1-(2-[3-[2-(difluoromethoxy)-5-(propan-2-ylsulfanyl)phenyl]-4-[pyrazolo[1,5-a]pyrimidine-3-amido]-1H-pyrazol-1-yl]acetyl)piperidin-4-yl]methyl]piperazine-1-carboxylate], the results for the Ki in test [1] and in test [3] were 1.4 nM and 0.6 nM, respectively. Besides, in test [2], the IC50 is 15 nM.
In the case of `CC(C)Sc1ccc(OC(F)F)c(-c2nn(CC(=O)N3CCC(C(=O)N4CCNCC4)CC3)cc2NC(=O)c2cnn3cccnc23)c1` [Example 151, N-[3-[2-(difluoromethoxy)-5-isopropylsulfanyl-phenyl]-1-[2-oxo-2-[4-(piperazine-1-carbonyl)-1-piperidyl]ethyl]pyrazol-4-yl]pyrazolo[1,5-a]pyrimidine-3-carboxamide], the Ki in test [1] is 2.3 nM; in test [3] it was 0.54 nM. In test [2], the IC50 turned out to be 960 nM.
For `CC(C)Sc1ccc(OC(F)F)c(-c2nn(CC(=O)N3CCC(N4CCN(CC(=O)N5CCOCC5)CC4)CC3)cc2NC(=O)c2cnn3cccnc23)c1` [Example 152, N-[3-[2-(difluoromethoxy)-5-isopropylsulfanyl-phenyl]-1-[2-[4-[4-(2-morpholino-2-oxo-ethyl)piperazin-1-yl]-1-piperidyl]-2-oxo-ethyl]pyrazol-4-yl]pyrazolo[1,5-a]pyrimidine-3-carboxamide], the Ki in test [1] worked out at 1.3 nM; in test [3], 0.52 nM. Also, the IC50 in test [2] turned out to be 290 nM.
For `CC(C)Sc1ccc(OC(F)F)c(-c2nn(CC(=O)N3CCC(N4CCOC[C@H]4CO)CC3)cc2NC(=O)c2cnn3cccnc23)c1` [Example 153], the Ki in test [1] came out at 0.91 nM; in test [3], 0.41 nM. Besides, the IC50 in test [2] was found to be 110 nM.
Take `CC(C)Sc1ccc(OC(F)F)c(-c2nn(CC(=O)N3CCC(N(C)CC(=O)N4CCOCC4)CC3)cc2NC(=O)c2cnn3cccnc23)c1` [Example 154, N-[3-[2-(difluoromethoxy)-5-isopropylsulfanyl-phenyl]-1-[2-[4-[methyl-(2-morpholino-2-oxo-ethyl)amino]-1-piperidyl]-2-oxo-ethyl]pyrazol-4-yl]pyrazolo[1,5-a]pyrimidine-3-carboxamide]: the Ki in test [1] was found to be 1.5 nM; in test [3], 0.42 nM. Moreover, in test [2], the IC50 is 81 nM.
